Laboratory results as given in patent publication US20240425478A1, “CYCLOPENTYLPYRAZOLE CDK2 INHIBITORS” (Genentech, Inc., priority 2021, published 2024).
Several values for one entry are separate records, joined by “and”; a condition that tells them apart may be missing. Identical values can stand only once. Like-named read-outs stand apart in the source and are kept apart here.

What was measured:
[1] = system: OVISE (JCRB1043, CCNE1-amplified); assay: OVISE EdU incorporation cell proliferation assay (CDK2-dependent); assay type: cell-based; conditions: for IC50 / FS SKOV-3/OVISE / FS p-H3/OVISE: Table O; for IC50: cellular assay, read-out: CDK2 OVISE IC50; for FS SKOV-3/OVISE / FS p-H3/OVISE: fold selectivity; for FS SKOV-3/OVISE: cellular SKOV-3 IC50 over OVISE IC50; for FS p-H3/OVISE: cellular p-H3 IC50 over OVISE IC50; for CDK2 OVISE IC50 fold change in potency versus Comparator D: Table R; for CDK2 OVISE IC50 fold change in potency versus Comparator D / CDK2 OVISE IC50 fold change in potency versus Comparator E: in brackets after OVISE IC50; for CDK2 OVISE IC50 fold change in potency versus Comparator E: Table S
Procedure, shortened: (§1)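 Cells in RPMI/10% FBS dosed with compound (0.5% DMSO final) for 16 h at 37 °C, 5% CO2, then EdU 0.5 μM final for 8 h before fixation and imaging. IC50 from 4-parameter logistic fit of EdU-positive cell fraction versus dose.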

HCT116 cells = assay: p-H3 HCT-116 mitotic release cell proliferation assay (cellular CDK1); assay type: cell-based; conditions: for IC50: Homo sapiens, HCT-116, Table O, cellular assay, read-out: CDK1 p-H3 IC50
Procedure, shortened: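 HCT116 cells arrested 16 h with 500 nM nocodazole, then exposed to compound for 4 h at 37 °C (0.1% DMSO). Lysates read by HTRF/FRET with donor and acceptor phospho-Histone H3 (Ser10) antibodies, ≥2 h at room temperature; CDK1 inhibition seen as loss of p-H3 on mitotic release.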

[2] = target: T1, Cyclin Dependent Kinase 1/Cyclin A2 (CDK1-cycA2) (Homo sapiens, UniProt P06493); assay: CDK1-cycA2 TR-FRET (Lance) enzyme assay; assay type: biochemical; conditions: for Ki: Table O, enzymatic assay; for FS CDK1/CDK2: fold selectivity, enzymatic Ki ratio
T1 construct: purchased ProQinase 0134-0054-1
T1 sequence (P06493 whole entry): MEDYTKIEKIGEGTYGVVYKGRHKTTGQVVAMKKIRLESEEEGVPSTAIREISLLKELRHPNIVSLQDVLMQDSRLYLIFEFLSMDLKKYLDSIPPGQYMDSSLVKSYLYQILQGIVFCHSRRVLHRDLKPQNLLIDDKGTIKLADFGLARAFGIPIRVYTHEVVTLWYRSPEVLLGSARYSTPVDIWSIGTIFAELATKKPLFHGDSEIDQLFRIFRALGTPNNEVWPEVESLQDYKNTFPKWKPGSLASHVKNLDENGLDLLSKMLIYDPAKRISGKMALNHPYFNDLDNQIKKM
T1 sequence (P20248 whole entry partner): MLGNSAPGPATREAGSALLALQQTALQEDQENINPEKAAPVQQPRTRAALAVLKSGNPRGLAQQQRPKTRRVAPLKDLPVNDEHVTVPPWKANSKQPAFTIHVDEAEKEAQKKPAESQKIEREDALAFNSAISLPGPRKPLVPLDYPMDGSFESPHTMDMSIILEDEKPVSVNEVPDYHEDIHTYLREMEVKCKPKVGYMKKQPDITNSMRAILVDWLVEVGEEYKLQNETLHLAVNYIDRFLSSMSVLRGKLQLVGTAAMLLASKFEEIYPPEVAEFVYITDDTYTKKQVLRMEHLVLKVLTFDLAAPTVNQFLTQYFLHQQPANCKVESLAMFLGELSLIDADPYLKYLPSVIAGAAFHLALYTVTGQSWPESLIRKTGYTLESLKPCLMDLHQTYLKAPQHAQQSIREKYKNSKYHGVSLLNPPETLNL
Procedure, shortened: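 Human CDK1/cyclin A2 pre-incubated 30 min with compound dose responses in 50 mM HEPES pH 7.5, 10 mM MgCl2, 2 mM TCEP, 0.05% BGG, 0.01% Brij 35. Reaction quenched with EDTA (15 mM final); TR-FRET readout using Eu-anti-phospho-4E-BP1, acceptor/donor ratio. Inhibition constants from Morrison equation.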

[3] = target: T2, Cyclin Dependent Kinase 2/Cyclin E1 (CDK2-cycE1) (Homo sapiens, UniProt P24941); assay: CDK2-cycE1 TR-FRET (LANCE) enzyme assay; assay type: biochemical; conditions: for FS CDK1/CDK2 / FS CDK4/CDK2: fold selectivity; for FS CDK1/CDK2: enzymatic CDK1 Ki over CDK2 Ki; for FS CDK4/CDK2: enzymatic CDK4 Ki over CDK2 Ki; for CDK2 Ki fold change in potency versus Comparator D / CDK2 Ki fold change in potency versus Comparator E: in brackets after CDK2 Ki
T2 construct: purchased ProQinase 0050-0055-1
Procedure, shortened: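 Compound dose responses pre-incubated 30 min with CDK2-cycE1 in 50 mM HEPES pH 7.5, 10 mM MgCl2, 2 mM TCEP, 0.05% BGG, 0.01% Brij 35. Reaction quenched with EDTA (15 mM final), phospho-MBP detected by Eu-anti-phospho-MBP TR-FRET (acceptor/donor ratio). Inhibition constants from Morrison equation.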

[4] = target: T3, Cyclin Dependent Kinase 4/Cyclin D3 (CDK4-cycD3) (Homo sapiens, UniProt P11802); assay: CDK4-cycD3 TR-FRET (LANCE) enzyme assay; assay type: biochemical; conditions: for Ki: Table O, enzymatic assay; for FS CDK4/CDK2: fold selectivity, enzymatic Ki ratio
T3 construct: purchased Carna Biosciences 04-105
T3 sequence (P11802 whole entry): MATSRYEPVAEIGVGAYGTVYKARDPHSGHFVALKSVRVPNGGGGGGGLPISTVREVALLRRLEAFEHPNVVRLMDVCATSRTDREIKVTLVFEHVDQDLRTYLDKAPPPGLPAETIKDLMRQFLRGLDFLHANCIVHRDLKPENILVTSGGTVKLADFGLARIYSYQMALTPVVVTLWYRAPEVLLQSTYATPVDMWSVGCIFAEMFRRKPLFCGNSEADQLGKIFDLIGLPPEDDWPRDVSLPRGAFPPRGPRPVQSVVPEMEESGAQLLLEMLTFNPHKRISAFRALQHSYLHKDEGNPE
T3 sequence (P30281 whole entry partner): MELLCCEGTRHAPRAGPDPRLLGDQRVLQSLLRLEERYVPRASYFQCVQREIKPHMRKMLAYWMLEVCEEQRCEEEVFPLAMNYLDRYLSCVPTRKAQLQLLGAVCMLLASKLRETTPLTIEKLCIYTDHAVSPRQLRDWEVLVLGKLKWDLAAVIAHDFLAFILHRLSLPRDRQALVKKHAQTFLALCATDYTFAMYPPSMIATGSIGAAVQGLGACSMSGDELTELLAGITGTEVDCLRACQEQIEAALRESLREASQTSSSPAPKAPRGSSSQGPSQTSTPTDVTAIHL
Procedure, shortened: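 Compound dose responses pre-incubated 30 min with enzyme mix in 50 mM HEPES pH 7.5, 10 mM MgCl2, 2 mM TCEP, 0.05% BGG, 0.01% Brij 35. Reaction quenched with EDTA (15 mM final); Eu-anti-phospho-4E-BP1 TR-FRET detection, acceptor/donor ratio. Ki derived by Morrison equation.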

SKOV-3 (ATCC HTB-77) = assay: SKOV-3 EdU incorporation cell proliferation assay (CDK4/6-dependent); assay type: cell-based; conditions: for IC50: Homo sapiens, cellular assay, read-out: CDK4/6 SKOV-3 IC50; for FS SKOV-3/OVISE: fold selectivity
Procedure, shortened: as §1

[5] = Table O, enzymatic assay, read-out: CDK2 Ki
[6] = Table R, enzymatic assay, read-out: CDK2 Ki
[7] = Table S, enzymatic assay, read-out: CDK2 Ki
[8] = read-out: CDK2 activity / potency (enzymatic assay)
[9] = SKOV-3/OVISE fold-selectivity cellular assay data

CC(C)(C)NC(=O)O[C@@H]1CC[C@H](c2cc(Nc3ncccn3)n[nH]2)C1 [Example 4J, (1R,3S)-3-(3-(pyrimidin-2-ylamino)-1H-pyrazol-5-yl)cyclopentyl tert-butylcarbamate]
IC50 [1]: 320 nM | FS SKOV-3/OVISE [1]: 3.8 | FS p-H3/OVISE [1]: 1.1 | CDK2 OVISE IC50 fold change in potency versus Comparator D [1]: 12 fold | CDK2 OVISE IC50 fold change in potency versus Comparator E [1]: 0.5 fold | IC50 (HCT116 cells): 360 nM | Ki [2]: 170 nM | FS CDK1/CDK2 increased over Comparator D, (+) sign ([2]; Table R): (+) | FS CDK1/CDK2 ([2]; Table R): 68 | FS CDK1/CDK2 increased over Comparator E, (+) sign ([2]; Table S): (+) | FS CDK1/CDK2 ([2]; Table S): 68 | Ki [3, 5]: 2.5 nM | FS CDK1/CDK2 ([3]; Table O): 68 | FS CDK4/CDK2 ([3]; Table O): 4.4 | Ki [3, 6]: 2.5 nM | CDK2 Ki fold change in potency versus Comparator D ([3]; Table R): 1.1 fold | Ki [3, 7]: 2.5 nM | CDK2 Ki fold change in potency versus Comparator E ([3]; Table S): 0.2 fold | Ki [4]: 11 nM | FS CDK4/CDK2 increased over Comparator D, (+) sign ([4]; Table R): (+) | FS CDK4/CDK2 ([4]; Table R): 4.4 | FS CDK4/CDK2 ([4]; Table S): 4.4 | IC50 (SKOV-3 (ATCC HTB-77); SK-OV-3, Table O): 1200 nM | IC50 (SKOV-3 (ATCC HTB-77); SK-OV-3, Table R): 1200 nM | IC50 (SKOV-3 (ATCC HTB-77); SK-OV-3, Table S): 1200 nM | FS SKOV-3/OVISE increased over Comparator D, (+) sign (SKOV-3 (ATCC HTB-77); Table R): (+) | FS SKOV-3/OVISE (SKOV-3 (ATCC HTB-77); Table R, cellular IC50 ratio): 3.8 | FS SKOV-3/OVISE (SKOV-3 (ATCC HTB-77); Table S, cellular IC50 ratio): 3.8

CC(C)(C)NC(=O)O[C@@H]1CC[C@H](c2cc(Nc3ccnnc3)n[nH]2)C1 [Example 4K, (1R,3S)-3-(3-(pyridazin-4-ylamino)-1H-pyrazol-5-yl)cyclopentyl tert-butylcarbamate]
CDK2 cell potency compared with Comparator E ([1]; CDK2 OVISE cellular assay data): more potent CDK2 cell inhibitors compared to Comparator E | IC50 [1]: 78 nM | FS SKOV-3/OVISE [1]: 71 | FS p-H3/OVISE [1]: 2.1 | CDK2 OVISE IC50 fold change in potency versus Comparator D [1]: 49 fold | CDK2 OVISE IC50 fold change in potency versus Comparator E [1]: 2.2 fold | CDK2 OVISE IC50 fold potency relative to Comparator A ([1]; first bracket in OVISE IC50 cell, Table P): 0.5 fold | CDK2 OVISE IC50 fold potency relative to Comparator B ([1]; second bracket in OVISE IC50 cell, Table P): 1.8 fold | pH3/OVISE fold selectivity (CDK1 over CDK2, cellular assay data) (HCT116 cells): 2.1 fold | IC50 (HCT116 cells): 160 nM | FS p-H3/OVISE compared with Comparator A (HCT116 cells; first sign in cell, Table P): (+) | FS p-H3/OVISE (HCT116 cells; fold selectivity, cellular IC50 ratio (CDK1 over CDK2), Table P): 2.1 | FS p-H3/OVISE compared with Comparator B (HCT116 cells; second sign in cell, Table P): (+) | Ki [2]: 27 nM | FS CDK1/CDK2 increased over Comparator D, (+) sign ([2]; Table R): (+) | FS CDK1/CDK2 ([2]; Table R): 54 | FS CDK1/CDK2 ([2]; Table S): 54 | FS CDK1/CDK2 ([2]; Table P): 54 | Ki [3, 5]: 0.45 nM | FS CDK1/CDK2 ([3]; Table O): 54 | FS CDK4/CDK2 ([3]; Table O): 104 | Ki [3, 6]: 0.45 nM | CDK2 Ki fold change in potency versus Comparator D ([3]; Table R): 6 fold | Ki [3, 7]: 0.45 nM | CDK2 Ki fold change in potency versus Comparator E ([3]; Table S): 1.2 fold | Ki ([3]; enzymatic assay, Table P, read-out: CDK2 Ki): 0.45 nM | CDK2 Ki fold potency relative to Comparator A ([3]; first bracket in CDK2 Ki cell, Table P): 0.4 fold | Ki [3, 8]: ≤ 1 nM and 0.45 nM | CDK2 Ki fold potency relative to Comparator B ([3]; second bracket in CDK2 Ki cell, Table P): 2 fold | Ki [4]: 52 nM | FS CDK4/CDK2 increased over Comparator D, (+) sign ([4]; Table R): (+) | FS CDK4/CDK2 increased over Comparator E, (+) sign ([4]; Table S): (+) | IC50 (SKOV-3 (ATCC HTB-77); SK-OV-3, Table O): 5500 nM | CDK2 selectivity over CDK4/6 compared with Comparators A and B (SKOV-3 (ATCC HTB-77); [9]): at least three times more CDK2 selective over CDK4/6 | selectivity for CDK2 over CDK4 compared with Comparator E (SKOV-3 (ATCC HTB-77); [9]): increase in selectivity for CDK2 over CDK4 | FS SKOV-3/OVISE increased over Comparator D, (+) sign (SKOV-3 (ATCC HTB-77); Table R): (+) | FS SKOV-3/OVISE (SKOV-3 (ATCC HTB-77); Table R, cellular IC50 ratio): 71 | FS SKOV-3/OVISE increased over Comparator E, (+) sign (SKOV-3 (ATCC HTB-77); Table S): (+) | FS SKOV-3/OVISE (SKOV-3 (ATCC HTB-77); Table S, cellular IC50 ratio): 71 | FS SKOV-3/OVISE compared with Comparator A (SKOV-3 (ATCC HTB-77); first sign in cell, Table P): (+) | FS SKOV-3/OVISE (SKOV-3 (ATCC HTB-77); cellular IC50 ratio (CDK4/6 over CDK2), Table P): 71 | FS SKOV-3/OVISE compared with Comparator B (SKOV-3 (ATCC HTB-77); second sign in cell, Table P): (+)

Cc1nc(S(C)(=O)=O)ccc1Nc1cc([C@H]2CC[C@@H](OC(=O)NC(C)(C)C)C2)[nH]n1 [Example 4L, (1R,3S)-3-(3-((2-methyl-6-(methylsulfonyl)pyridin-3-yl)amino)-1H-pyrazol-5-yl)cyclopentyl tert-butylcarbamate]
IC50 [1]: 310 nM | FS SKOV-3/OVISE [1]: 52 | FS p-H3/OVISE [1]: 1 | IC50 (HCT116 cells): 310 nM | Ki [2]: 95 nM | Ki [3, 5]: 2.9 nM | FS CDK1/CDK2 ([3]; Table O): 33 | FS CDK4/CDK2 ([3]; Table O): 162 | Ki [4]: 470 nM | IC50 (SKOV-3 (ATCC HTB-77); SK-OV-3, Table O): 16000 nM

Cn1nc(Nc2cc([C@H]3CC[C@@H](OC(=O)NC(C)(C)C(F)F)C3)[nH]n2)ccc1=O [Example 5C, (1R,3S)-3-(3-((1-methyl-6-oxo-1,6-dihydropyridazin-3-yl)amino)-1H-pyrazol-5-yl)cyclopentyl (1,1-difluoro-2-methylpropan-2-yl)carbamate]
IC50 [1]: 63 nM | FS SKOV-3/OVISE [1]: 84 | FS p-H3/OVISE [1]: 2.4 | IC50 (HCT116 cells): 150 nM | Ki [2]: 9.4 nM | Ki [3, 5]: 0.3 nM | FS CDK1/CDK2 ([3]; Table O): 31 | FS CDK4/CDK2 ([3]; Table O): 433 | Ki [4]: 130 nM | IC50 (SKOV-3 (ATCC HTB-77); SK-OV-3, Table O): 5300 nM

Cn1nc(Nc2cc([C@H]3CC[C@@H](OC(=O)NC45CC(C4)C5)C3)[nH]n2)ccc1=O [Example 6, (1R,3S)-3-(5-((1-methyl-6-oxo-1,6-dihydropyridazin-3-yl)amino)-1H-pyrazol-3-yl)cyclopentyl bicyclo[1.1.1]pentan-1-ylcarbamate]
IC50 [1]: 16 nM | FS SKOV-3/OVISE [1]: 81 | FS p-H3/OVISE [1]: 1.4 | IC50 (HCT116 cells): 23 nM | Ki [2]: 21 nM | Ki [3, 5]: < 0.1 nM | FS CDK1/CDK2 ([3]; Table O): >33 | FS CDK4/CDK2 ([3]; Table O): >320 | Ki [3, 8]: ≤ 1 nM | Ki [4]: 20 nM | IC50 (SKOV-3 (ATCC HTB-77); SK-OV-3, Table O): 1300 nM

CN(C(=O)O[C@@H]1CC[C@H](c2cc(Nc3ccc(=O)n(C)n3)n[nH]2)C1)C(C)(C)C [Example 6B, (1R,3S)-3-(3-((1-methyl-6-oxo-1,6-dihydropyridazin-3-yl)amino)-1H-pyrazol-5-yl)cyclopentyl tert-butyl(methyl)carbamate]
IC50 [1]: 27 nM | FS SKOV-3/OVISE [1]: 14 | FS p-H3/OVISE [1]: 0.32 | IC50 (HCT116 cells): 8.7 nM | Ki [2]: 0.78 nM | Ki [3, 5]: < 0.1 nM | FS CDK1/CDK2 ([3]; Table O): >12 | FS CDK4/CDK2 ([3]; Table O): >120 | Ki [4]: 7.4 nM | IC50 (SKOV-3 (ATCC HTB-77); SK-OV-3, Table O): 390 nM
